Measurements as given in US9889101B2, “Therapeutic treatment of cancer and dysplasia of the cervix or vagina using estrogen antagonists” (Wisconsin Alumni Research Foundation, priority 2009, dated 2018).

Key:
[1] = test system: ER; settings: undefined if not mentioned; cited from earlier work
[2] = test system: K14E6/K14E7 double transgenic mice; assay: Treatment of pre-existing cervical/vaginal cancer and dysplasia in estrogen-treated K14E6/K14E7 mice
Experimental: Experimental mice were generated by crossing K14E7 hemizygote and K14E6 homozygote mice. Female progenies were genotyped by PCR and a slow-releasing 17β-estradiol (E2) tablet (0.05 mg/60 days) (Innovative Research of America) was inserted subcutaneously under the dorsal skin every two months beginning at 4-6 weeks of age. After 6-month treatment with E2, one group of mice was sacrificed immediately to evaluate cancer phenotypes (6M E2 group), another group was maintained for another month without further treatment (6M E2+1M without fulvestrant group), and the third group was treated with fulvestrant for a month (6M E2+1M with fulvestrant group).
Faslodex (50 mg/ml, human formulation of intramuscular injection of fulvestrant) was purchased from Astra Zeneca. Mice were subcutaneously injected with 0.15 ml (equivalent to 7.5 mg of fulvestrant) of Faslodex twice a week for a month (total of 9 injections).
Mice were subsequently injected with fulvestrant as described in Materials and Methods. Reproductive tracts were harvested, fixed in para-formaldehyde (PFA), and embedded in paraffin. Every tenth 5 μM section was stained with H&E and histopathologically scored to identify the worst grade of cervical/vaginal disease present in each animal. […] EVISTA® tablets were purchased from Eli Lilly and Company, which are human formulation of raloxifene (60 mg/tablet). Tablets were resuspended in phosphate buffered saline at a final concentration of 10 mg/ml. K14E6/K14E7 double transgenic mice were treated with E2 for 6 months and subsequently with raloxifene for a month by intraperitoneally injecting them with 0.15 ml of raloxifene suspension (equivalent to 1.5 mg) 5 days a week.

[3] = test system: CVX1 human cervical cancer cells (ERα-positive); assay: Subcutaneous CVX1 tumors in nude mice; assay type: in vivo; settings: estrogen-treated nude mice, fulvestrant 7.5 mg s.c. twice a week, two-week treatment period
[4] = test system: CaSki cervical cancer cell line (ERα-negative); assay: Subcutaneous CaSki tumors in nude mice; assay type: in vivo, human; settings: estrogen-treated nude mice, with fulvestrant 7.5 mg s.c. twice a week
[5] = test system: K14E6/K14E7 double transgenic mice; assay: Prevention of cervical/vaginal cancer in E2-treated K14E6/K14E7 mice (preventive fulvestrant)
Experimental: Mice. […] Experimental mice were generated by crossing K14E7 hemizygote and K14E6 homozygote mice. Female progenies were genotyped by PCR and a slow-releasing 17β-estradiol (E2) tablet (0.05 mg/60 days) (Innovative Research of America) was inserted subcutaneously under the dorsal skin every two months beginning at 4-6 weeks of age. After 6-month treatment with E2, one group of mice was sacrificed immediately to evaluate cancer phenotypes (6M E2 group), another group was maintained for another month without further treatment (6M E2+1M without fulvestrant group), and the third group was treated with fulvestrant for a month (6M E2+1M with fulvestrant group).
Fulvestrant treatment. Faslodex (50 mg/ml, human formulation of intramuscular injection of fulvestrant) was purchased from Astra Zeneca. Mice were subcutaneously injected with 0.15 ml (equivalent to 7.5 mg of fulvestrant) of Faslodex twice a week for a month (total of 9 injections).

[6] = test system: nontransgenic female mice; assay: Uterine wet weight after one week of fulvestrant (dose finding); settings: two injections day 0 and day 3, uteri weighed day 7, normalized to body weight
Text: The indicated dose was given to nontransgenic female mice by two injections at day 0 and day 3, and uteri were harvested and weighed at day 7. Uterine wet weight was normalized to body weight.

[7] = 6M E2 + 1M fulvestrant 7.5 mg s.c. twice a week, 13 mice
[8] = 6M estrogen then fulvestrant for two weeks
[9] = 6M E2 + preventive fulvestrant (one month at the three-month time point), six-month endpoint
[10] = 6M E2 + preventive fulvestrant, six-month endpoint
[11] = 6M E2 + 1M raloxifene 1.5 mg i.p. 5 days a week

COc1ccc(-c2sc3cc(O)ccc3c2Oc2ccc(OCCN3CCCCC3)cc2)cc1 [Arzoxifene]
Effect in cervix, vagina and endometrium [1]: antagonist in endometrium

CC/C(=C(/c1ccc(OCCN(C)C)cc1)c1cccc(O)c1)c1ccccc1 [Droloxifene]
Effect in cervix, vagina and endometrium [1]: agonist in endometrium

CC1=C(c2ccc(OC(=O)C(C)(C)C)cc2)[C@H](c2ccc(OCCN3CCCCC3)cc2)Oc2cc(OC(=O)C(C)(C)C)ccc21 [EM-800]
Effect in cervix, vagina and endometrium [1]: antagonist in endometrium

CC/C(=C(\c1ccc(I)cc1)c1ccc(OCCN2CCCC2)cc1)c1ccccc1 [Idoxifene]
Effect in cervix, vagina and endometrium [1]: agonist in endometrium

Oc1ccc2c(c1)CC[C@H](c1ccccc1)[C@@H]2c1ccc(OCCN2CCCC2)cc1 [Lasofoxifene]
Effect in cervix, vagina and endometrium [1]: neutral in endometrium

COc1ccc2c(c1)OC(C)(C)[C@@H](c1ccccc1)[C@@H]2c1ccc(OCCN2CCCC2)cc1 [Levormeloxifene]
Effect in cervix, vagina and endometrium [1]: agonist in endometrium

COc1ccc2c(c1)OC(C)(C)C(c1ccccc1)C2c1ccc(OCCN2CCCC2)cc1 (centres unmarked) [Ormeloxifene]
Effect in cervix, vagina and endometrium [1]: antagonist in endometrium

Cc1c(-c2ccc(O)cc2)n(Cc2ccc(OCCN3CCCCC3)cc2)c2ccc(O)cc12 [Pipendoxifene]
Effect in cervix, vagina and endometrium [1]: antagonist in endometrium

CC/C(=C(\c1ccccc1)c1ccc(OCCN(C)C)cc1)c1ccccc1 [Tamoxifen]
Effect in cervix, vagina and endometrium [1]: agonist in cervix, vagina,

CN(C)CCOc1ccc(/C(=C(/CCCl)c2ccccc2)c2ccccc2)cc1 [Toremifene]
Effect in cervix, vagina and endometrium [1]: agonist in endometrium

C[C@]12CC[C@@H]3c4ccc(O)cc4C[C@@H](CCCCCCCCC[S+]([O-])CCCC(F)(F)C(F)(F)F)[C@H]3[C@@H]1CC[C@@H]2O (some centres unmarked) [fulvestrant]
Effect in cervix, vagina and endometrium [1]: antagonist in cervix, vagina,
number of mice with CIN1 as worst state (cervix) [2, 7]: 0 (0)
number of mice with CIN2 as worst state (cervix) [2, 7]: 0 (0)
number of mice with CIN3 as worst state (cervix) [2, 7]: 0 (0)
number of mice with VIN1 as worst state (vagina) [2, 7]: 0 (0)
number of mice with VIN2 as worst state (vagina) [2, 7]: 0 (0)
number of mice with VIN3 as worst state (vagina) [2, 7]: 0 (0)
number of mice with cervical cancer [2, 7]: 1 (1)
number of mice with no dysplasia (worst state of disease) [2, 7]: 11
number of mice with vaginal cancer [2, 7]: 1 (1)
Average size of the largest tumor ([2]; 6M E2 + 1M with fulvestrant): 0.02 ± 0.05^ mm^2
Tumor multiplicity, Cervix ([2]; 6M E2 + 1M with fulvestrant): 0.2 ± 0.5
Tumor multiplicity, Vagina ([2]; 6M E2 + 1M with fulvestrant): 0.1 ± 0.3
dysplastic lesions (CIN and VIN) in lower reproductive tract ([2]; 6M estrogen then fulvestrant for 1 month): absence of any grade of dysplastic lesions
cancers in the lower reproductive tracts [2, 8]: still had cancers
dysplastic lesions in lower reproductive tract [2, 8]: absent
thickness of lower reproductive tract epithelia ([2]; fulvestrant-treated mice): 2-3 layers of cells
mice in which cancers persisted after one-month fulvestrant ([2]; of 13 mice, one cervical, one vaginal cancer): 2
CVX1 tumor growth [3]: did not grow at all
CaSki tumor growth [4]: 4.7 fold
# mice with no dysplasia or cancer, Cervix [5, 9]: 6
# mice with no dysplasia or cancer, Vagina [5, 9]: 6
# mice w/ dysplasia only, CIN1 [5, 10]: 0 (0)
# mice w/ dysplasia only, CIN2 [5, 10]: 0 (0)
# mice w/ dysplasia only, CIN3 [5, 10]: 0 (0)
# mice w/ dysplasia only, VIN1 [5, 10]: 0 (0)
# mice w/ dysplasia only, VIN2 [5, 10]: 0 (0)
# mice w/ dysplasia only, VIN3 [5, 10]: 0 (0)
# mice w/cancer and dysplasia, Cervix [5, 10]: 0 (0)
# mice w/cancer and dysplasia, Vagina [5, 10]: 0 (0)
mice w/cancer and dysplasia (%), Cervix [5, 10]: 0 (0) %
mice w/cancer and dysplasia (%), Vagina [5, 10]: 0 (0) %
cervical disease at the six-month endpoint ([5]; fulvestrant for one month at the three-month time point of E2 treatment): neither CIN nor cervical cancer
decrease in uterine wet weight ([6]; fulvestrant 10 mg/week): 50%
reduction in uterine wet weight ([6]; fulvestrant 15 mg/week): 70%

O=C(c1ccc(OCCN2CCCCC2)cc1)c1c(-c2ccc(O)cc2)sc2cc(O)ccc12 [raloxifene]
Effect in cervix, vagina and endometrium [1]: neutral in endometrium
# mice w/ dysplasia only, CIN1 [2, 11]: 0 (0)
# mice w/ dysplasia only, CIN2 [2, 11]: 0 (0)
# mice w/ dysplasia only, CIN3 [2, 11]: 0
# mice w/ dysplasia only, VIN1 [2, 11]: 0 (0)
# mice w/ dysplasia only, VIN2 [2, 11]: 0 (0)
# mice w/ dysplasia only, VIN3 [2, 11]: 1
# mice w/cancer and dysplasia, Cervix [2, 11]: 0 (0)
# mice w/cancer and dysplasia, Vagina [2, 11]: 0 (0)
# mice with no dysplasia or cancer, Cervix [2, 11]: 7
# mice with no dysplasia or cancer, Vagina [2, 11]: 6
mice w/cancer and dysplasia (%), Cervix [2, 11]: 0 (0) %
mice w/cancer and dysplasia (%), Vagina [2, 11]: 0 (0) %
regression of cervical and vaginal disease including cancers ([2]; 6M E2 then raloxifene 1.5 mg i.p. 5 days a week for a month): complete regression
